Results published in ChEMBL document CHEMBL1201862, “PubChem BioAssay data set” (2004).
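Grown in 96-well plates, cells were treated for 48 hours with each compound at five concentrations. Insufficient inhibition: endpoint recorded as highest concentration tested. At the GI50, growth is halved.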 Calls of active or inactive are those of the source. Rule as the data show it: active = GI50 up to about 1.1 µM and inactive = higher.

What was measured:
Assay in all cases: DTP human tumour cell line panel, 48 h
SNB-75 = system: SNB-75
K562 = system: K562
KM12 = system: KM12
SK-MEL-5 = system: SK-MEL-5
A549 = system: A549
EKVX = system: EKVX
M19-MEL = system: M19-MEL
RXF 393 = system: RXF 393
IGROV-1 = system: IGROV-1
TK-10 = system: TK-10
A498 = system: A498
SK-MEL-2 = system: SK-MEL-2
SK-OV-3 = system: SK-OV-3
OVCAR-4 = system: OVCAR-4
CAKI-1 = system: CAKI-1
HCT-15 = system: HCT-15
DU-145 = system: DU-145
Hs-578T = system: Hs-578T
NCI/ADR-RES = system: NCI/ADR-RES
BT-549 = system: BT-549

| SMILES | GI50 (SNB-75) | GI50 (K562) | GI50 (KM12) | GI50 (SK-MEL-5) | GI50 (A549) | GI50 (EKVX) | GI50 (M19-MEL) | GI50 (RXF 393) | GI50 (IGROV-1) | GI50 (TK-10) | GI50 (A498) | GI50 (SK-MEL-2) | GI50 (SK-OV-3) | GI50 (OVCAR-4) | GI50 (CAKI-1) | GI50 (HCT-15) | GI50 (DU-145) | GI50 (Hs-578T) | GI50 (NCI/ADR-RES) | GI50 (BT-549) |
| --- | --- | --- | --- | --- | --- | --- | --- | --- | --- | --- | --- | --- | --- | --- | --- | --- | --- | --- | --- | --- |
| CC1(C)OCC(C(O)C2OC(C)(C)OC2/C=N\O)O1 (stereo not drawn) | > 100 µM (inactive) | > 100 µM (inactive) | > 100 µM (inactive) | > 100 µM (inactive) | > 100 µM (inactive) | > 100 µM (inactive) | > 100 µM (inactive) | > 100 µM (inactive) | > 100 µM (inactive) | > 100 µM (inactive) | > 100 µM (inactive) | > 100 µM (inactive) | > 100 µM (inactive) | – | – | – | – | – | – | – |
| CC1=CC(C)(C)N=C2SC(c3ccc(Cl)cc3)=NN12 | – | 21.4 µM (inactive) | 26 µM (inactive) | 15.5 µM (inactive) | 40 µM (inactive) | 3.85 µM (inactive) | 32 µM (inactive) | – | > 100 µM (inactive) | 37 µM (inactive) | 25.8 µM (inactive) | 43.6 µM (inactive) | 46.2 µM (inactive) | 26.2 µM (inactive) | 27.9 µM (inactive) | 25.4 µM | – | – | – | – |
| CCOC(=O)CNc1nnnn1C1OC(CO)C(O)C1O (stereo not drawn) | > 100 µM (inactive) | > 100 µM (inactive) | > 100 µM (inactive) | > 100 µM (inactive) | > 100 µM (inactive) | > 100 µM (inactive) | > 100 µM (inactive) | > 100 µM (inactive) | > 100 µM (inactive) | > 100 µM (inactive) | > 100 µM (inactive) | > 100 µM (inactive) | > 100 µM (inactive) | – | > 100 µM (inactive) | > 100 µM | – | – | – | – |
| C[C@]12CCC(=O)C=C1CC[C@@H]1[C@@H]2[C@@H](O)C[C@@]2(C)[C@H]1CC[C@]2(O)C(=O)COC(=O)COCC(=O)O | > 100 µM (inactive) | > 100 µM (inactive) | > 100 µM (inactive) | > 100 µM (inactive) | > 100 µM (inactive) | > 100 µM (inactive) | > 100 µM (inactive) | – | > 100 µM (inactive) | > 100 µM (inactive) | > 100 µM (inactive) | > 100 µM (inactive) | > 100 µM (inactive) | > 100 µM (inactive) | > 100 µM (inactive) | > 100 µM | – | – | – | – |
| O=C(O/N=C1\CCCC\C1=C/c1ccccc1)c1ccc([N+](=O)[O-])cc1 | 41.7 µM (inactive) | 74.1 µM (inactive) | – | – | 88.5 µM (inactive) | > 100 µM (inactive) | > 100 µM (inactive) | > 100 µM (inactive) | – | – | – | > 100 µM (inactive) | > 100 µM (inactive) | 33.1 µM (inactive) | > 100 µM (inactive) | > 100 µM | – | – | – | – |
| CCCCCCCCCCCCCCC(O)C1CCC(C(O)CCC(O)CCCCCC(O)CC2=CC(C)OC2=O)O1 (stereo not drawn) | 2.22 µM (inactive) | 0.0123 µM (active) | – | 0.0131 µM (active) | 2.2 µM (inactive) | 1.93 µM (inactive) | 2 µM (inactive) | – | 1.44 µM (inactive) | 4.27 µM (inactive) | 4.45 µM (inactive) | 2.54 µM (inactive) | 4.73 µM (inactive) | 0.013 µM (active) | 8.13 µM (inactive) | 1.29 µM | – | – | – | – |
| CCCCCCCCSC(SCCCCCCCC)=C1C(=O)N(c2ccccc2)N=C1C | 41.8 µM (inactive) | 28.7 µM (inactive) | 33.7 µM (inactive) | 47 µM (inactive) | 26.8 µM (inactive) | 59.3 µM (inactive) | 37 µM (inactive) | 53.5 µM (inactive) | 43.1 µM (inactive) | 42.6 µM (inactive) | 24.3 µM (inactive) | 58.6 µM (inactive) | 77.3 µM (inactive) | – | 26.9 µM (inactive) | 37.7 µM | – | – | – | – |
| CN(C)CCNc1ccc2nnn3c4ccc(O)cc4c(=O)c1c23 | 9.57 µM (inactive) | 1.61 µM (inactive) | 2.32 µM (inactive) | 2.53 µM (inactive) | 0.598 µM (active) | 3.13 µM (inactive) | – | 1.68 µM (inactive) | 1.96 µM (inactive) | 5.12 µM (inactive) | 3.71 µM (inactive) | 9.79 µM (inactive) | 3.72 µM (inactive) | 2.08 µM (inactive) | 3.13 µM (inactive) | 1.29 µM | 6.31 µM (inactive) | 2.03 µM (inactive) | 1.81 µM (inactive) | 15.2 µM (inactive) |
| Oc1ccc2ccccc2c1C(c1ccc(Cl)cc1)c1c(O)ccc2ccccc12 | 3.18 µM (inactive) | 2.67 µM (inactive) | 2.67 µM (inactive) | 2.3 µM (inactive) | 2.95 µM (inactive) | 2.59 µM (inactive) | – | 2.96 µM (inactive) | 2.35 µM (inactive) | 3.53 µM (inactive) | 2.7 µM (inactive) | 2.4 µM (inactive) | 4.66 µM (inactive) | 3.05 µM (inactive) | 2.71 µM (inactive) | 3.49 µM | 3.37 µM (inactive) | 0.989 µM (active) | 2.85 µM (inactive) | 4.65 µM (inactive) |
| Nc1nc(N)c2ncn(-c3ccc(Br)cc3)c2n1 | 6.97 µM (inactive) | 11 µM (inactive) | 14.4 µM (inactive) | 32.5 µM (inactive) | 33.1 µM (inactive) | 5.45 µM (inactive) | – | 14.2 µM (inactive) | 5.38 µM (inactive) | 35.1 µM (inactive) | 15.6 µM (inactive) | 14.4 µM (inactive) | 15 µM (inactive) | > 38.3 µM (inactive) | 7.21 µM (inactive) | 19.9 µM | 24.5 µM (inactive) | 4.12 µM (inactive) | 10.7 µM (inactive) | 97.7 µM (inactive) |
| CC(C)=CCC[C@](C)(O)[C@H]1CC[C@]2(C)[C@@H]1[C@H](O)C[C@@H]1[C@@]3(C)CC[C@H](O[C@@H]4O[C@H](CO)[C@@H](O)[C@H](O)[C@H]4O)C(C)(C)[C@@H]3CC[C@]12C [GINSENOSIDE RH2] | 19.1 µM (inactive) | 19.8 µM (inactive) | 17.6 µM (inactive) | 18.1 µM (inactive) | 18.8 µM (inactive) | 22.7 µM (inactive) | – | 17 µM (inactive) | 16.3 µM (inactive) | 21.4 µM (inactive) | 19.8 µM (inactive) | 15.9 µM (inactive) | 18.5 µM (inactive) | 21.5 µM (inactive) | 18.7 µM (inactive) | 17.5 µM | 19.5 µM (inactive) | 21.9 µM (inactive) | 25.1 µM (inactive) | 18 µM (inactive) |
| CC(C)=CCC/C(C)=C/CC/C(C)=C/CCN(C)CCO | 7.43 µM (inactive) | 1.54 µM (inactive) | 2.75 µM (inactive) | 1.89 µM (inactive) | 9.77 µM (inactive) | 16.8 µM (inactive) | – | 7.59 µM (inactive) | 2.94 µM (inactive) | 6 µM (inactive) | 14.2 µM (inactive) | 13.2 µM (inactive) | 15.1 µM (inactive) | 13.9 µM (inactive) | 6.32 µM (inactive) | 3.95 µM | 12.7 µM (inactive) | 1.88 µM (inactive) | 12.4 µM (inactive) | 10.8 µM (inactive) |
| O=c1[nH]nc(Cc2ccccc2)n1/N=C\CC/C=N\n1c(Cc2ccccc2)n[nH]c1=O | 24.4 µM (inactive) | 36.2 µM (inactive) | > 100 µM (inactive) | 29.2 µM (inactive) | > 100 µM (inactive) | 36.6 µM (inactive) | – | 24.3 µM (inactive) | 14.3 µM (inactive) | > 100 µM (inactive) | > 100 µM (inactive) | 31.3 µM (inactive) | 31.3 µM (inactive) | 48.8 µM (inactive) | > 100 µM (inactive) | 19.9 µM | 43.5 µM (inactive) | 20.2 µM (inactive) | 19.4 µM (inactive) | 25.8 µM (inactive) |
| CN(C)CC(O)c1ccc(Cl)c2ccccc12 (stereo not drawn) | 17.4 µM (inactive) | 1.15 µM (inactive) | 50.4 µM (inactive) | 16.6 µM (inactive) | > 77.6 µM (inactive) | > 100 µM (inactive) | – | 22.1 µM (inactive) | 39.5 µM (inactive) | 34.3 µM (inactive) | 22.4 µM (inactive) | 19.3 µM (inactive) | 74 µM (inactive) | 63.4 µM (inactive) | 25.6 µM (inactive) | > 90.2 µM | > 96.8 µM (inactive) | 38.2 µM (inactive) | 81.5 µM (inactive) | 57.1 µM (inactive) |
| Cn1c(=O)nc2n(-c3ccc(O)cc3)c3ccccc3nc-2c1=O | 9.23 µM (inactive) | > 100 µM (inactive) | 55.3 µM (inactive) | 18.7 µM (inactive) | 36.7 µM (inactive) | > 100 µM (inactive) | 20 µM (inactive) | – | > 100 µM (inactive) | > 100 µM (inactive) | > 100 µM (inactive) | 82.2 µM (inactive) | > 100 µM (inactive) | > 100 µM (inactive) | 13.7 µM (inactive) | > 100 µM | – | – | – | – |
| CCC(C)(C)NC1=C(NC(C)=O)C(=O)c2ccccc2C1=O | > 75 µM (inactive) | 20.8 µM (inactive) | 57.3 µM (inactive) | 13.5 µM (inactive) | > 75 µM (inactive) | > 75 µM (inactive) | 13.3 µM (inactive) | 25 µM (inactive) | > 75 µM (inactive) | > 75 µM (inactive) | – | 21 µM (inactive) | > 75 µM (inactive) | > 75 µM (inactive) | – | 32.9 µM | – | – | – | – |
| COc1ccc(-c2cc(-c3ccco3)c(C#N)c(=O)[nH]2)cc1 | 18 µM (inactive) | > 100 µM (inactive) | > 100 µM (inactive) | > 10 µM (inactive) | 91.4 µM (inactive) | > 100 µM (inactive) | 87.9 µM (inactive) | 45.1 µM (inactive) | > 100 µM (inactive) | 50.8 µM (inactive) | 28.2 µM (inactive) | – | 23.2 µM (inactive) | 29.2 µM (inactive) | – | 57.7 µM | – | – | – | – |
